Data as given in US9415032B2, “Membrane activated chelators and use in the prevention and treatment of parasitic infection” (THE JOHNS HOPKINS UNIVERSITY, priority 2011, dated 2016).
pEC50: −log10 of the molar value. Like-named read-outs stand apart in the source and are kept apart here.

Key:
Assay type in all cases: cell-based
[1] = system: T. b. brucei 427 or T. b. rhodesiense IL1852; assay: trypanosome cytotoxicity assay in vitro; conditions: Trypanosoma brucei, by 24 hours, BSF trypanosomes, read-out: effective concentration of drug to kill 50% (EC50) of the parasites
Method: (§1) FIG. 1 illustrates the effect of MACs of the present invention on human brain microvascular endothelial cell (BMEC) monolayers interaction with trypanosomes. (A) Human BMEC pretreated with 20 μM DP-b99 impeded parasite transmigration across this barrier (t-5 hours, n=3). […] The data are represented as average TEER or migration±S.E. (n=4; p<0.05). (B) BSF trypanosomes were incubated with DP-b99 or DP460. The average percent (n=4) of parasites killed after 24 hours is plotted against drug concentration.
(§2) African Trypanosomes: The MAC compound of the present invention, DP-b99, as a chelator of Ca^2+ and Zn^2+ was tested to determine whether it would tighten the BBB to trypanosome traversal based on the concepts described above. In pilot parasite/BBB transmigration experiments, bloodstream form Trypanosoma brucei rhodesiense (Tbr) IL1852 were incubated in Transwell inserts containing human brain microvascular endothelial cell (BMEC) monolayers pretreated for 60 minutes with DP-b99, then washed free of drug. In a parallel experiment, human BMEC grown on gold-coated electrode ECIS arrays, were similarly treated with the MAC compound. When compared to the untreated control group, T. b. rhodesiense transmigration across a human BMEC barrier was impeded 60% after 5 hours incubation (FIG. 1A). […]

P. falciparum = assay: antimalarial cytotoxicity assay ([3H]hypoxanthine), malaria-infected RBC; conditions: Plasmodium falciparum
Method: FIG. 2 is set of graphs showing the percentage of P. falciparum killed by MACs of the present invention as a function of drug concentration. Malaria-infected RBC were incubated with DP-b99 (A and B).
FIG. 3 is a graph showing the percentage of P. falciparum killed by MACs of the present invention as a function of drug concentration.
Malaria. Because of the importance of calcium signaling in mammalian cells and recent findings that interference with host cell signaling pathways to subvert the host intracellular milieu may be an important mechanism for the malaria parasite's survival, it was thought that MACs might be toxic to malarial parasite within host cells (i.e. RBCs, hepatocytes). It was investigated whether MAC compounds of the present invention would be able to kill intracellular malaria parasites. An established antimalarial cytotoxicity assay developed in Dr. Theresa Shapiro's laboratory (JHU) (Tetrahedron, 1997; 53(1):37-50) was used with the following modifications: (1) Parasitemia was maintained at 0.1% to 5% by thrice weekly change of medium and replenishment of human erythrocytes; (2) [^3H]hypoxanthine (10-30 Ci/mmol, 1.0 mCi/mL was used in aqueous solution, (Perkin-Elmer NET177001MC), diluted to 25 μCi/mL with medium; and as for the trypanosome experiments (3) the cytotoxicity assays for two MAC compounds of the present invention, DP-b99 and DP-460 (DPharm, Ltd., Rehovot Ill.), included 10 concentrations based on stock solutions (50.0 mg/mL) of each compound that were prepared in sterile HPLC-grade water.

[2] = system: bloodstream form Trypanosoma brucei rhodesiense (Tbr) IL1852 transmigration across human BMEC barrier; assay: parasite/BBB transmigration across human BMEC monolayers in Transwell inserts; conditions: BMEC pretreated 60 minutes with 20 μM DP-b99, washed free of drug; after 5 hours incubation
Method: as §1, §2

[3] = system: human brain microvascular endothelial cell (BMEC) monolayers; assay: ECIS transendothelial electrical resistance (TEER) of human BMEC during infection; conditions: BMEC pretreated with 20 μM DP-b99
Method: as §1, §2

[4] = pilot experiments, read-out: concentration range found to kill P. falciparum

SMILES | pEC50 [1] | pEC50 (P. falciparum; R^2=0.995 (FIG. 3), read-out: EC50, P. falciparum killed) | pEC50 (P. falciparum; [4]) | T. b. rhodesiense transmigration across a human BMEC barrier impeded, compared to untreated control [2] [%] | barrier tightness of human BMEC during the infection (ECIS TEER) [3]
CCCCCCCCCCCCOCCOC(=O)CN(CC(=O)O)c1ccccc1OCCOc1ccccc1N(CC(=O)O)CC(=O)OCCOCCCCCCCCCCCC [DP-460] | ~4.41 | 4.55 | 4.55 to 4.68 | – | –
CCCCCCCCOCCOC(=O)CN(CC(=O)O)c1ccccc1OCCOc1ccccc1N(CC(=O)O)CC(=O)OCCOCCCCCCCC [DP-b99] | ~4.06 | – | 4.55 to 4.68 | 60 | maintained a tighter barrier
